SMILES strings stand for the structures.

Conditions in all cases: Homo sapiens
A short description of assay [1]: Binding affinity to chymotrypsin (unknown origin).
Assay [2] in a line: Binding affinity to chymotrypsin (unknown origin) assessed as hydrolysis.
A short description of assay [3]: Binding affinity to chymotrypsin (unknown origin) assessed as deacetylation.

For `CS(=O)(=O)N[C@@H](Cc1ccccc1)C(=O)Oc1ccc([N+](=O)[O-])cc1`, in assay [1], the log(1/Km) stood at 5.37. Moreover, the log K in assay [2] turned out to be 1.56.

For the compound `CCC(=O)Oc1ccc([N+](=O)[O-])cc1`, the log K in assay [3] was -2.1. In assay [1], `CCC[C@H](NC(C)=O)C(=O)OCCCl` showed a log(1/Km) of 3.1. Also, the logKcat in assay [2] amounted to 0.57. For `COC(=O)[C@H](C)NC(=O)c1ccccc1N`, in that order: 2.33 and -0.62. For `CC[C@H](C)OC(=O)CNC(=O)c1ccccc1`, in that order: 2.95 and -1.04.

In the case of `CCCC(=O)Oc1ccc([N+](=O)[O-])cc1`, in assay [3], the log K was -2.22.

Regarding `COC(=O)[C@H](C)NC(=O)c1cccnc1`, the log(1/Km) in assay [1] came out at 1.43. In assay [2], the logKcat is -0.24. As for `O=C(N[C@@H](Cc1ccccc1)C(=O)Oc1ccc([N+](=O)[O-])cc1)OCc1ccccc1`, in assay [1], the log(1/Km) came to 6.32. Further, the log K in assay [3] stood at 1.59. Regarding `O=C(CCc1ccccc1)Oc1ccc([N+](=O)[O-])cc1`, in assay [3], the log K is -0.73.

Compound `Nc1ccc(OC(=O)CNC(=O)c2ccccc2)cc1` returned a log(1/Km) in assay [1] of 3.77. For the same compound, in assay [2], the logKcat was -0.3. For the compound `CCC[C@@H](NC(=O)CCl)C(=O)OC`, the log1/Ki in assay [1] stood at 1.23. In assay [1], `Cc1ccc(OC(=O)[C@H](Cc2ccccc2)NS(C)(=O)=O)cc1` gave a log(1/Km) of 4.7. For the same compound, the log K in assay [2] turned out to be 1.56.

For the compound `O=C(CCCCCl)Oc1ccc([N+](=O)[O-])cc1`, the log K in assay [3] was -1.37. Regarding `COC(=O)[C@H](CC1CCCCC1)NC(C)=O`, the log(1/Km) in assay [1] was 3.72. Moreover, the logKcat in assay [2] came out at 1.18.

`CCOC(=O)[C@@H](NC(C)=O)c1ccccc1`: the log(1/Km) in assay [1] turned out to be 2.48. In assay [2], the logKcat was -0.05. `CC(=O)N[C@@H](C)C(=O)Oc1ccc([N+](=O)[O-])cc1` came in with a log(1/Km) in assay [1] of 3.32. `CCCCC[C@H](NC(C)=O)C(=O)OC`: the log(1/Km) in assay [1] was 2.79. Moreover, the logKcat in assay [2] was 1.13. `CCCCCC[C@H](NC(C)=O)C(=O)OC`: the log(1/Km) in assay [1] came out at 2.53. Moreover, the logKcat in assay [2] was 0.79.

On to `COC(=O)[C@H](C)NC(C)=O`, for which the log(1/Km) in assay [1] is 0.21. Besides, in assay [2], the logKcat is 0.11. Take `CS(=O)(=O)N[C@@H](Cc1ccccc1)C(=O)Oc1ccc(Cl)cc1`: in assay [1], the log(1/Km) came to 4.88. Further, the log K in assay [2] turned out to be 1.56. In assay [1], `CC(=O)NCC(=O)O[C@H](C)c1ccccc1` returned a log(1/Km) of 3.66. The logKcat in assay [2] was -0.6. Turning to `CCCCC(=O)Oc1ccc([N+](=O)[O-])cc1`, the log K in assay [3] is -1.77. As to `CC(C)[C@H](NC(=O)OCc1ccccc1)C(=O)Oc1ccc([N+](=O)[O-])cc1`, the log(1/Km) in assay [1] stood at 4.75. Besides, the log K in assay [3] was -0.93. With `CC(=O)NCCCC(=O)Oc1ccc([N+](=O)[O-])cc1`, the log K in assay [3] was -2.21. Take `COC(=O)[C@@H](C)NC(=O)c1cccnc1`: in assay [1], the log(1/Km) came to 2.22. As to `CCOC(=O)C(NC(C)=O)C(=O)OCC`, the log(1/Km) in assay [1] was determined as 1.51. Besides, the logKcat in assay [2] is -0.15. In assay [1], `O=C(CNC(=O)c1ccccc1)Oc1ccc(F)cc1` had a log(1/Km) of 3.85. Also, the logKcat in assay [2] was -0.28. For `CC(=O)N[C@@H](Cc1ccccc1)C(=O)Oc1ccc([N+](=O)[O-])cc1`, in that order: 4.62 and 1.89. Consider `O=C(CCl)Oc1ccc([N+](=O)[O-])cc1`, for which the log K in assay [3] amounted to 0.47. Take `CC(C)C[C@@H](NC(=O)OCc1ccccc1)C(=O)Oc1ccc([N+](=O)[O-])cc1`: the log(1/Km) in assay [1] came to 5.62. Moreover, the log K in assay [3] is -0.96. Take `CC(=O)N[C@@H](Cc1ccccc1)C(=O)O[C@@H](C)C1CCCCC1`: the log(1/Km) in assay [1] was 3.28. For the same compound, the logKcat in assay [2] was 1.37. The compound `COC(=O)[C@H](C)NC(=O)c1cccs1` registered a log(1/Km) in assay [1] of 1.82. Further, the logKcat in assay [2] is -0.34. For `NC(=O)C[C@@H](NC(=O)OCc1ccccc1)C(=O)Oc1ccc([N+](=O)[O-])cc1`, in assay [1], the log(1/Km) amounted to 5.84. In addition, the log K in assay [3] was -1.65. As to `COC(=O)[C@@H](C)NC(=O)c1ccncc1`, in assay [1], the log(1/Km) came out at 1.57.

For `CCCCCC(=O)Oc1ccc([N+](=O)[O-])cc1`, the log K in assay [3] was -1.44.

For `CCC[C@@H](NC(=O)c1ccccc1)C(=O)OC`, in assay [1], the log1/Ki worked out at 2.75. For `COC(=O)[C@H](NC(=O)CCl)C(C)C`, the log1/Ki in assay [1] amounted to 0.77.

Take `C[C@H](NC(=O)OCc1ccccc1)C(=O)Oc1ccc([N+](=O)[O-])cc1`: the log(1/Km) in assay [1] amounted to 4.7. For the same compound, the log K in assay [3] came out at 0.48.

For the compound `CCCCCCC(=O)Oc1ccc([N+](=O)[O-])cc1`, the log K in assay [3] is -1.21.

`CCC(=O)NCC(=O)Oc1ccc([N+](=O)[O-])cc1`: the log(1/Km) in assay [1] stood at 3.95. In assay [3], the log K was -0.25. In assay [1], `CCOC(=O)C[C@H](NC(C)=O)C(=O)OCC` showed a log(1/Km) of 1.64.

For the compound `CCC[C@H](NC(=O)OCc1ccccc1)C(=O)Oc1ccc([N+](=O)[O-])cc1`, in assay [1], the log(1/Km) came out at 5.57. Moreover, in assay [3], the log K worked out at 0.19.

As to `C[C@@H](NC=O)C(=O)Oc1ccc([N+](=O)[O-])cc1`, in assay [1], the log(1/Km) is 5.21. The log K in assay [3] was -1.14.

With `O=COc1ccc([N+](=O)[O-])cc1`, in assay [3], the log K was 0.39. In assay [1], `CCOC(=O)CNC(=O)c1ccccc1` had a log(1/Km) of 2.64.

Turning to `CC[C@@H](C)OC(=O)CNC(=O)c1ccccc1`, in assay [1], the log(1/Km) was 2.7. Take `O=C(CCCc1ccccc1)Oc1ccc([N+](=O)[O-])cc1`: the log K in assay [3] is -0.87. On the same count and under the same terms, under `CCCCCCCC(=O)Oc1ccc([N+](=O)[O-])cc1` stands -1.47. For `C[C@@H](NC(=O)OCc1ccccc1)C(=O)Oc1ccc([N+](=O)[O-])cc1`, the log(1/Km) in assay [1] was determined as 5.08. For the same compound, the log K in assay [3] was -1.05.

In the case of `COC(=O)[C@@H](Cc1ccccc1)NC=O`, the log(1/Km) in assay [1] was 3.6. Take `O=C(CI)Oc1ccc([N+](=O)[O-])cc1`: the log K in assay [3] was -0.1. In turn, `CCC[C@@H](NC(C)=O)C(=O)OC` registered a log1/Ki in assay [1] of 0.95. With `O=CNCC(=O)Oc1ccc([N+](=O)[O-])cc1`, the log(1/Km) in assay [1] turned out to be 4.8. The log K in assay [3] was -0.61.

Take `CC(C)(C)C(=O)Oc1ccc([N+](=O)[O-])cc1`: the log K in assay [3] was -3.69. Still for that read-out and setting: under `O=C(Oc1ccc([N+](=O)[O-])cc1)c1cccc([N+](=O)[O-])c1` stands -2.85; under `O=C(Cc1ccccc1)Oc1ccc([N+](=O)[O-])cc1`, -1.65. In turn, `COC(=O)[C@@H](C)NC(=O)c1ccccc1` registered a log(1/Km) in assay [1] of 2.48. The same measure, in the same setting: to `CCC[C@H](NC(=O)CCl)C(=O)OC` belongs 2.3.

In assay [1], `CC(C)[C@@H](NC(=O)OCc1ccccc1)C(=O)Oc1ccc([N+](=O)[O-])cc1` displayed a log(1/Km) of 5.13. The log K in assay [3] was -2.1.

For the compound `CCC[C@@H](NC(=O)OCc1ccccc1)C(=O)Oc1ccc([N+](=O)[O-])cc1`, the log(1/Km) in assay [1] stood at 5.5. For the same compound, in assay [3], the log K is -0.82. With `CC(C)CC(=O)Oc1ccc([N+](=O)[O-])cc1`, the log K in assay [3] is -2.9. With `COC(=O)[C@@H](C)NC(=O)c1ccccc1N`, the log(1/Km) in assay [1] came out at 2.8. Take `O=C(Cc1c[nH]c2ccccc12)Oc1ccc([N+](=O)[O-])cc1`: the log K in assay [3] was -2.52.

With `CC(C)C[C@H](NC(=O)OCc1ccccc1)C(=O)Oc1ccc([N+](=O)[O-])cc1`, the log(1/Km) in assay [1] was found to be 5.32. Also, in assay [3], the log K came out at 0.92. Consider `CC(=O)Oc1ccc([N+](=O)[O-])cc1`, for which, in assay [3], the log K is -2. In assay [1], `CCCC[C@H](NC(=O)OCc1ccccc1)C(=O)Oc1ccc([N+](=O)[O-])cc1` gave a log(1/Km) of 5.24. In addition, the log K in assay [3] turned out to be 1.1. In assay [1], `COC(=O)[C@H](NC(C)=O)C(C)C` returned a log1/Ki of 0.71. `O=C(CCCl)Oc1ccc([N+](=O)[O-])cc1`: the log K in assay [3] is -1.67.

For `O=C(CCCCc1ccccc1)Oc1ccc([N+](=O)[O-])cc1`, the log K in assay [3] is -1.68. Compound `COC(=O)[C@@H](C)NC(=O)c1ccccn1` registered a log(1/Km) in assay [1] of 1.77. On to `COCC(=O)Oc1ccc([N+](=O)[O-])cc1`, for which, in assay [3], the log K is -0.46. Turning to `CCOC(=O)[C@@H](Cc1ccc(O)cc1)NC(=O)c1cccnc1`, in assay [1], the log1/Ki stood at 3.1. On to `O=C(CCc1c[nH]c2ccccc12)Oc1ccc([N+](=O)[O-])cc1`, for which the log K in assay [3] is -0.47. Take `O=C(CNC(=O)OCc1ccccc1)Oc1ccc([N+](=O)[O-])cc1`: the log(1/Km) in assay [1] is 5.31. The log K in assay [3] was -0.39. With `O=C(CCCc1c[nH]c2ccccc12)Oc1ccc([N+](=O)[O-])cc1`, the log K in assay [3] is -0.83. The same measure, in the same setting: to `O=C(CCCCl)Oc1ccc([N+](=O)[O-])cc1` belongs -1.27. In assay [1], `COC(=O)[C@H](NC(=O)c1ccccc1)C(C)C` returned a log1/Ki of 2.28. In assay [1], `C[C@H](NC=O)C(=O)Oc1ccc([N+](=O)[O-])cc1` yielded a log(1/Km) of 4.88. Also, the log K in assay [3] was -0.61. For `NC(=O)C[C@H](NC(=O)OCc1ccccc1)C(=O)Oc1ccc([N+](=O)[O-])cc1`, in that order: 4.87 and 1.53. Turning to `CC[C@@H](NC(=O)OCc1ccccc1)C(=O)Oc1ccc([N+](=O)[O-])cc1`, in assay [1], the log(1/Km) was determined as 5.71. The log K in assay [3] is -1.45. `CCOC(=O)[C@@H](Cc1ccc(O)cc1)NC(C)=O` yielded a log1/Ki in assay [1] of 2.4.

Consider `CCCC(=O)NCC(=O)Oc1ccc([N+](=O)[O-])cc1`, for which the log(1/Km) in assay [1] was 3.87. Further, the log K in assay [3] is -0.06.

Turning to `O=C(N[C@H](Cc1ccccc1)C(=O)Oc1ccc([N+](=O)[O-])cc1)OCc1ccccc1`, in assay [1], the log(1/Km) was 6.42. Further, in assay [3], the log K is -0.74. As to `CC(C)C(=O)Oc1ccc([N+](=O)[O-])cc1`, the log K in assay [3] is -2.45. `COC(=O)[C@@H](C)NC(=O)c1cccs1`: the log(1/Km) in assay [1] turned out to be 2.16. Take `CC[C@H](NC(=O)OCc1ccccc1)C(=O)Oc1ccc([N+](=O)[O-])cc1`: the log(1/Km) in assay [1] is 5.74. For the same compound, the log K in assay [3] is 0.43. In the case of `CC(C)(C)CC(=O)Oc1ccc([N+](=O)[O-])cc1`, the log K in assay [3] was -3.82. In assay [1], `CCOC(=O)[C@H](C)NC(C)=O` registered a log(1/Km) of 0.6. The same measure, in the same setting: under `CC(=O)N[C@H](C(=O)Oc1ccc([N+](=O)[O-])cc1)C(C)C` stands 3.31. Turning to `COC(=O)[C@@H](Cc1ccccc1)NC(C)=O`, the log1/Ki in assay [1] stood at 2.64.

These data come from ChEMBL document CHEMBL3272151, “Quantitative structure-activity relationship of chymotrypsin-ligand interactions” (J Med Chem, 1977).
